This is an account of results in ChEMBL document CHEMBL1151654, “Antineoplastic and piscicidal 1-alkyldaphnane orthoesters from Pimelea species” (J Nat Prod, 1985).

Structures are written as SMILES.

The subject of one data set is Gambusia affinis. The data set can be described thus: Toxicity against Gambusia affinis at 30 to 60 ug/L within 24 hrs. Format: organism-based. Conditions: in vivo.
The test system of data set [1] is P388. Nature of the data set: In vivo antitumor activity against mouse P388 cells at 100 ug/kg relative to control. Format: functional.
Data set [2] deals with P388. Nature of the data set: In vivo antitumor activity against mouse P388 cells at 300 ug/kg relative to control. Format: functional.

For `C=C(C)[C@@]12C[C@@H](COC(=O)c3ccccc3)[C@@]34OC5(O[C@@H]1[C@@H]3[C@@H]1O[C@]1(CO)[C@@H](O)[C@@]1(O)[C@H]4[C@H]([C@H](C)[C@@H]1OC(=O)c1ccccc1)[C@H](C)CCCCCC[C@H]5O)O2` [GNIDIMACRIN], the Activity result in the data set on Gambusia affinis is “Toxic”. For `C=C(C)[C@@]12C[C@@H](C)[C@@]34OC5(O[C@@H]1[C@@H]3[C@@H]1O[C@]1(CO)[C@@H](O)[C@@]1(O)[C@H]4[C@H]([C@H](C)[C@@H]1OC(=O)c1ccccc1)[C@H](C)CCCCCC[C@H]5O)O2` [KRAUSSIANIN], the Activity entry in the data set on Gambusia affinis is “Toxic”. The T/C is the result in the treated group divided by that in the control group, in per cent. Regarding `C=C1C(=O)O[C@H]2C[C@@H](C)[C@@H]3C=CC(=O)[C@@]3(C)[C@H](OC(C)=O)[C@H]12` [LINIFOLIN A], the T/C in the data set on P388 [1] was found to be 107%. Moreover, the Activity result in the data set on Gambusia affinis is recorded as “Toxic”. In the case of `C=C(C)[C@@]12C[C@@H](C)[C@@]34OC5(O[C@@H]1[C@@H]3[C@@H]1O[C@]1(CO)[C@@H](O)[C@@]1(O)[C@H]4[C@H]([C@H](C)[C@@H]1OC(=O)c1ccccc1)[C@@H](C)CCCCCC[C@H]5O)O2` [LINIMACRIN C], the Activity entry in the data set on Gambusia affinis is given as “Toxic”. Take `C=C(C)[C@]12OC34CCCCCCC[C@@H](C)[C@H]5[C@H](C)[C@H](OC(=O)c6ccccc6)[C@@]6(O)[C@H](O)[C@@]7(CO)O[C@H]7[C@@H]([C@H]1O3)[C@](O4)([C@H](C)[C@H]2OC(C)=O)[C@H]56` [LINIMACRIN D]: the T/C in the data set with P388 [2] was 132%. Further, the Activity entry in the data set on Gambusia affinis is “Toxic”.

In the case of `C=C(C)[C@]12C[C@@H](C)[C@@]34OC5(CCCCCCC[C@H](C)[C@H]6[C@H](C)[C@H](OC(=O)c7ccccc7)[C@@](O)([C@H](O)[C@@]7(CO)O[C@H]7[C@H]3[C@H]1O5)[C@@H]64)O2` [PIMELEA FACTOR P2], the Activity entry with Gambusia affinis is “Toxic”. In the case of `C=C(C)[C@@]12C[C@@H](C)[C@@]34OC5(CCCCCCC[C@@H](C)[C@H]6[C@H](C)[C@H](OC(=O)c7ccccc7)[C@@](O)([C@H](O)[C@@]7(CO)O[C@H]7[C@H]3[C@H]1O5)[C@@H]64)O2` [PIMELEA FACTOR P3], the T/C in the data set with P388 [2] was determined as 164%. In the data set with Gambusia affinis, the Activity entry is reported as “Toxic”.

For the compound `C=C(C)[C@@]12C[C@@H](COC(=O)c3ccccc3)[C@@]34OC5(O[C@@H]1[C@@H]3[C@@H]1O[C@]1(CO)[C@@H](O)[C@@]1(O)[C@H]4[C@H]([C@H](C)[C@@H]1OC(=O)c1ccc(OC(C)=O)cc1)[C@H](C)CCCCCC[C@H]5O)O2` [SIMPLEXIMACRIN], in the data set on Gambusia affinis, the Activity result was “Toxic”.
